Experimental findings from ChEMBL document CHEMBL1149636 are described below.

The target in this assay is Carbonic anhydrase 4 (Homo sapiens) (UniProt P22748).

Molecules are shown by their SMILES.

Carbonic anhydrase 4 (Homo sapiens), sequence (P22748 whole entry): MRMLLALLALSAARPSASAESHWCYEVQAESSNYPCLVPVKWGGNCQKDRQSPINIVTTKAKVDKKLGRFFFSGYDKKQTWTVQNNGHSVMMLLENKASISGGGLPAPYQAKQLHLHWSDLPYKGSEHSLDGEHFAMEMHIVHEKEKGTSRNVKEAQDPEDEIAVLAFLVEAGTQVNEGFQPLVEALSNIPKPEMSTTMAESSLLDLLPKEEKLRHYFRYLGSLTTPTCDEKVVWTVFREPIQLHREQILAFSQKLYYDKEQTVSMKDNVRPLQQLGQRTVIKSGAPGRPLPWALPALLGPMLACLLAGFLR
Description: Inhibition of human recombinant full length CA4 by stopped-flow technique

`CCNC1CN(CCCOC)S(=O)(=O)c2sc(S(N)(=O)=O)cc21` (single isomer, unassigned) registered a Kinact of 3.95 µM.
